row,SMILES,melting point [°C]
1,Cc1cc(C2=NNC(=O)C2)ccc1[N+](=O)[O-],218 to 219
2,COc1cc2c(cc1OC)N(C)C(=O)CN=C2c1cccc(C=O)c1,175 to 178
3,CN(c1ccc(Br)cc1)c1nc(=O)c2cccnc2s1,221 to 222
4,O=c1oc(-c2ccccc2)cc(O)c1C(SC1CCCCC1)c1ccccc1 (centres undefined),189 to 191
5,COc1ncnc(Cl)c1[N+](=O)[O-],65
6,COc1c2c(cc3ccc(=O)oc13)CC(O)O2 (centres undefined),135 to 137
7,O=C(C1CSC(c2cccnc2)N1)N1CCN(c2ncccn2)CC1 (centres undefined),156 to 159
8,CC(C)CN1C(=O)[C@@H](CC(=O)O)N=C(c2ccccc2Cl)c2cc(Cl)ccc21,175 to 178
9,CC(C)(C)[Si](Oc1ccc(C=O)cc1)(c1ccccc1)c1ccccc1,103 to 105
10,NS(=O)(=O)c1ccc(N2CN(c3ccccc3)CC2=O)cc1Cl,257 to 259
11,Sc1nccn1Cc1ccccc1Cl,206 to 207
12,CCS(=O)(=O)Nc1cc(-n2nc3ccc(Cl)cn3c2=O)c(F)cc1Cl,120 to 122
13,O=S(=O)(Cl)c1nc2nc(OCC(F)(F)F)ccn2n1,91 to 96
14,CCc1[nH]nc(C(=O)NC2CCCC2)c1NC(=O)c1cnccn1,175 to 176
15,CN(c1cccc2cc(-c3nccs3)[nH]c12)S(=O)(=O)c1cccnc1Cl,203
16,O=[N+]([O-])c1ccc2ncccc2c1O,245
17,O=C(C(Cl)Cl)N1CCOC1C(Cl)Cl (centres undefined),80
18,COc1ccc(C=NC2CCN(c3cc4c(cc3F)c(=O)c(C(=O)O)cn4-c3ccc(F)cc3)C2)cc1 (centres undefined),270 to 271
19,CS(=O)(=O)c1cccc(NC(=O)c2cnn3c(C(F)(F)F)cc(-c4ccc(Cl)c(Cl)c4)nc23)c1,263
20,COc1ccc(-c2nnc(SC)nc2-c2ccc(OC)cc2)cc1,152 to 155

# Further lines, results first:
row,melting point [°C],SMILES
1,119 to 120,CN(C)CCOC(=O)c1cccc(Nc2cc(C(C)(C)C)c(O)c(C(C)(C)C)c2)c1
2,140 to 141,CCN(C)C(N)=C(C#N)C#N
3,76 to 82,Nc1nc(N)c2ncn(COCCOCCO)c2n1
4,89 to 91,CN(C)CCCCCC(=O)O
5,146 to 149,CCOC(=O)C1(Cc2ccc(OC)c(OC)c2)C(=O)NCC1c1ccc(OC)c(OC)c1 (centres undefined)
6,164 to 166,Cc1cc(=O)oc2nn(C(C)C)c(C)c12
7,70 to 72,CCCCCCCCCCCNC(=S)NCCCCCCCCCCC
8,135 to 137,Cc1ccc(S(=O)(=O)NCCN(C(=O)c2ccccc2C(=O)c2ccccc2)C(C)C)cc1
9,223 to 224,CCCCCC(CNC(=O)Nc1cc(C(N)=O)ccc1C(C)(C)C)c1ccc(OC)cc1OC (centres undefined)
10,57,CC1=CC(=O)C=CC1(C)C(Cl)(Cl)Cl (centres undefined)
11,195,CCOC(=O)C1=C(c2ccccc2)Nc2n[nH]cc2C1c1ccccc1OC (centres undefined)
12,145,CCC(=O)Nc1ccc(C(=O)c2nc(-c3cccc(C(=O)O)c3)c3ccccn23)cc1OC
13,183 to 184,CCOC(=O)C(=O)Nc1cc([N+](=O)[O-])c2ccccc2c1NC(=O)C(=O)OCC
14,107,CC(C)(C)C(=O)Nc1cccc(C(F)(F)F)c1

# Reference: a melting point compilation (Tetko et al.; mined from patent text by program, amines drawn as free bases though some values may be those of a salt)
